Test results published in patent publication US20110021567A1, “PREPARATION OF LENALIDOMIDE” (DR. REDDY'S LABORATORIES LTD., priority 2008, published 2011).

Assay: storage stability of the amorphous form (material remains amorphous)
Assay type: physicochemical
Conditions: five days at 0-5° C., packaged in a polyethylene bag

With `Nc1cccc2c1CN(C1CCC(=O)NC1=O)C2=O` (stereo not shown) [Example 8, 3-(4-amino-1-oxo-1,3-dihydro-2H-isoindol-2-yl)piperidine-2,6-dione] the “physical form on storage” value was “remains amorphous”.
